Assay results published in PMC9501633, “Synthesis, Characterisation and Mechanism of Action of Anticancer 3-Fluoroazetidin-2-ones” (Pharmaceuticals, 2022).

Columns and labels:
[1] = tested on: Hs578Ts(i)8 cells; assay: AlamarBlue cell viability assay; assay type: cell-based
Description: (§1) The potent 3-fluoro-β-lactam compound 33 synthesised was also evaluated in the triple-negative MDA-MB-231 cell line which lacks expression of the estrogen and progesterone receptors (ER/PR) and the HER2 receptor. […]. Compound 32 was also evaluated in the triple-negative breast cancer cell line Hs578T and its isogenic subclone Hs578T(i)8 (Figure 4C). Hs578Ts(i)8 cells have 2.5-fold more migratory capacity and 3-fold more invasive capacity through the extracellular matrix than the parental cell line (Hs578T) and have 30% more CD44+/CD24-/low cells and in vivo proliferation. […]. The human breast carcinoma cell lines MCF-7 and MDA-MB-231 were purchased from the European Collection of Animal Cell Cultures (ECACC, Salisbury, UK). The SW-480 cells were a kind gift from Dr. Brian Flood, School of Biochemistry and Immunology, Trinity College Dublin. The human breast tumour cell line MCF-7 was cultured in Eagles minimum essential medium with 10% foetal bovine serum, 2 mM L-glutamine and 100 μg/mL penicillin/streptomycin. The medium was supplemented with 1% non-essential amino acids. The human breast tumour cell line MDA-MB-231 cells were maintained in Dulbecco’s modified Eagle’s medium (DMEM) with the addition of penicillin/streptomycin (100 µg/mL), 10% (v/v) foetal bovine serum and 2 mM L-glutamine (complete medium). Breast cancer cell line Hs578T and its isogenic subclone Hs578T(i)8 were a kind gift from Dr. Susan McDonnell, School of Chemical and Bioprocess Engineering, University College Dublin. SW-480 cells, triple-negative breast cancer Hs578T cells and invasive variant Hs578T8i cells were cultured in DMEM with GlutaMAX-I, with the same supplement in the absence of non-essential amino acids. HEK-293T cells (normal epithelial embryonic kidney cells) were cultured in DMEM with GlutaMAX-I in the absence of non-essential amino acids. The SW-480 cells were cultured in DMEM with GlutaMAX-I, with the same supplement in the absence of non-essential amino acids. All media contained 100 U/mL penicillin and 100 μg/mL streptomycin. The cells were seeded into pre-warmed complete medium (10 × 10^4 cells/mL) and maintained at a cell density of 2–19 × 10^5 cells /mL by the addition of fresh media. The cell number was monitored using a haemocytometer. Cells were maintained at 37 °C in 5% CO2 in a humidified incubator. […]
(§2) Figure 4 Antiproliferative activity of 3-fluoro β-lactams on MCF-7, MDA-MB-231, Hs578T and Hs578T isogenic subclone Hs578T(i)8 breast cancer cells and non-tumourigenic HEK-293T cells. […] Cell viability was expressed as a percentage of vehicle control (ethanol 1% (v/v))-treated cells. […] Cell viability was expressed as a percentage of vehicle control (ethanol 1% (v/v))-treated cells and was measured by AlamarBlue assay (average of three independent experiments). […]

[2] = tested on: Hs578T cells; assay: AlamarBlue cell viability assay; assay type: cell-based; details: Homo sapiens, Hs-578T
Description: as §1, §2

[3] = Stability in phosphate buffers (HPLC); assay type: physicochemical
Description: The β-lactam ring is known to undergo hydrolysis/degradation depending on the substituent type on the ring. For example, degradation of monocyclic β-lactam antibiotic aztreonam increased with elevated humidity, temperature and acidic pH buffer. Ezetimibe, a monocyclic β-lactam drug used to reduce blood cholesterol, undergoes degradation and hydrolysis more rapidly in neutral and basic pH conditions than in acidic pH [71]. The stability of representative compounds 33 and 39 was also determined at pH 4, pH 7.4 (plasma) and pH 9 (intestine) by HPLC. […] The electron-withdrawing effect of the 3-fluoro substituent may result in decreasing stability of the β-lactam ring in response to acid hydrolysis.
The stability study for compounds 33 and 39 was performed using analytical HPLC (Symmetry column (C18, […], 4.6 × 150 mm), dual wavelength absorbance detector (Waters 2487), binary HPLC pump (Waters 1525) and autosampler (Waters 717 plus)) with mobile phase acetonitrile (70%)/water (30%), flow rate 1 mL/min over 15 min and detection at λ 254 nm. Stock solutions of compounds 33 and 39 (1 mg/mL in mobile phase) were used. Dilutions of 0.5 mg/mL, 0.25 mg/mL, 0.125 mg/mL, 0.0625 mg/mL, 0.03125 mg/mL, 0.015625 mg/mL and 0.0078 mg/mL were prepared for the calibration curve. (i) Stability of 33 and 39 in phosphate buffers: The phosphate buffers were prepared in accordance with the British Pharmacopoeia 2020 at pH values 4, 7.4 and 9. Stock solution, 300 µL (1 mg/mL ACN), was added to a vial containing buffer (9.7 mL), mixed and pre-heated to 37 °C. 1 mL of the solution was introduced into an HPLC vial. Samples (10 µL) were injected and analysed at time intervals of t = 0 min, 5 min, 30 min, 60 min and hourly for 24 h. The analysis was performed in triplicate. (ii) Thermal stability: Compounds 33 and 39 (1 mL stock solution) were each placed in a vial for 4 h at 60 °C on a heating block. The sample was then cooled, diluted with acetonitrile and analysed by HPLC. (iii) Photostability study: Compounds 33 and 39 (stock solution, 1 mL) were placed in a vial, exposed to UV light for 4 h and then analysed by HPLC. (iv) Stability in acidic conditions: HCl (0.1 M, 0.2 mL) was added to stock solutions (0.8 mL) of 33 and 39 in a vial. The vial was vortexed and retained at room temperature. A sample was neutralised with NaOH (0.1 M, 0.2 mL) each hour for 4 h and then analysed by HPLC. (v) Stability of 33 and 39 in basic (alkaline) conditions: NaOH (0.1 M, 0.2 mL) was added to stock solution (0.8 mL) in a vial. The vial was vortexed and retained at room temperature. A sample was neutralised with HCl (0.1 M, 0.2 mL) every hour for 4 h then analysed by HPLC. (vi) Stability of 33 and 39 in oxidising conditions: H2O2 (3%, 0.2 mL) was added to the stock solution (0.8 mL). The vial was vortexed to obtain a homogeneous mixture and retained at room temperature, and a sample was analysed by HPLC every hour for 4 h.

| Structure (SMILES) | IC50 [1] [nM] | IC50 [2] [nM] | remaining at 24 h, 0.03 mg/mL ([3]; phosphate buffer pH 4, 37 °C) [%] | remaining at 24 h, 0.03 mg/mL ([3]; phosphate buffer pH 7.4, 37 °C) [%] | remaining at 24 h, 0.03 mg/mL ([3]; phosphate buffer pH 9, 37 °C) [%] | remaining at 0.03 mg/mL ([3]; phosphate buffer, pH 11 (as printed in Table S7)) [%] |
| --- | --- | --- | --- | --- | --- | --- |
| COc1ccc(/C=C\c2cc(OC)c(OC)c(OC)c2)cc1O [CA-4, combretastatin A-4, reference compound] | 20 | 8 | – | – | – | – |
| COc1ccc(C2C(F)C(=O)N2c2cc(OC)c(OC)c(OC)c2)cc1F (stereo not drawn) [Compound 33, 3-Fluoro-4-(3-fluoro-4-methoxyphenyl)-1-(3,4,5-trimethoxyphenyl)azetidin-2-one] | – | – | 76 | 87 | 26 | 26 |
